Test results: patent US20230398101A1, “Co-agents as Therapy Against Anaerobic Pathogens” (priority 2022, published 2023)
Read-outs that look alike come from different tables or passages of the source.

Legend:
Escherichia coli = assay: Post-antibiotic effect (PAE) in vitro, viable counts; details: Escherichia coli ATCC 25922
Cutibacterium acnes = assay: Anaerobic agar-dilution AST (MIC, checkerboard FIC); type: cell-based
Prevotella intermedia = assay: as above; type: cell-based
Staphylococcus aureus = assay: Aerobic agar-dilution AST of facultative anaerobes (MIC, checkerboard FIC); type: cell-based; details: Staphylococcus aureus, read-out: MIC
Pseudomonas aeruginosa = assay: as above; type: cell-based
Bifidobacterium animalis = assay: Anaerobic agar-dilution AST (MIC, checkerboard FIC); type: cell-based
Lactobacillus gasseri = assay: AST (MIC) of beneficial or mutualistic facultative anaerobic bacteria; type: cell-based
Pediococcus pentosaceus = assay: as above; type: cell-based
Bacteroides fragilis = assay: Anaerobic agar-dilution AST (MIC, checkerboard FIC); type: cell-based; details: for MIC vs clinical breakpoint (susceptibility): anaerobic (Table 17)
Enterococcus faecalis = assay: Aerobic agar-dilution AST of facultative anaerobes (MIC, checkerboard FIC); type: cell-based
Clostridioides difficile = assay: Anaerobic agar-dilution AST (MIC, checkerboard FIC); type: cell-based; details: for MIC vs clinical breakpoint (susceptibility): anaerobic (Table 17)
[1] = system: Lactobacillus acidophilus; assay: AST (MIC) of beneficial or mutualistic facultative anaerobic bacteria; type: cell-based
Bacteroides ovatus = assay: Anaerobic agar-dilution AST (MIC, checkerboard FIC); type: cell-based
Klebsiella pneumoniae = assay: Aerobic agar-dilution AST of facultative anaerobes (MIC, checkerboard FIC); type: cell-based

C[C@@H]1O[C@@H]1P(=O)(O)O [F, fosfomycin sodium]
PAE (Escherichia coli; exposure μg/ml: F 1, D/S 0.5/9.5, CAv 4/8, F/D/S 0.125/0.125/2.38, F/D/S/CAv 0.06/0.03/0.6/4/0.25): 0.5 h
PAE (Escherichia coli; exposure μg/ml: F 2, D/S 1/19, CAv 4/16, F/D/S 0.25/0.25/4.75, F/D/S/CAv 0.125/0.06/1.19/4/0.5): 0.5 h
PAE (Escherichia coli; exposure μg/ml: F 4, D/S 2/38, CAv 4/32, F/D/S 0.5/0.5/9.5, F/D/S/CAv 0.25/0.125/2.38/4/1): 1 h
PAE (Escherichia coli; exposure μg/ml: F 8): 1.5 h
MIC (Cutibacterium acnes; Cutibacterium acnes): 128 µg/mL
MIC vs clinical breakpoint (susceptibility) (Cutibacterium acnes; Cutibacterium acnes 6609, anaerobic (Table 17)): +
MIC (Cutibacterium acnes; Cutibacterium acnes, Cutibacterium acnes 6609, anaerobic, read-out: MIC): 64 µg/mL
MIC (Cutibacterium acnes; Cutibacterium acnes, strain 6609, anaerobic, read-out: MIC): 32 µg/mL
MIC (Cutibacterium acnes; strain 6609, anaerobic): 64 µg/mL
MIC (Prevotella intermedia; Prevotella intermedia, Prevotella intermedia 8071621, anaerobic): > 128 µg/mL
MIC (Prevotella intermedia; Prevotella intermedia, strain 807114, anaerobic): > 128 µg/mL
MIC (Prevotella intermedia; Prevotella intermedia, strain 8071621, anaerobic): > 128 µg/mL
MIC (Prevotella intermedia; Prevotella intermedia, strain 8071621, anaerobic, read-out: MIC): 64 µg/mL
MIC (Prevotella intermedia; strain 8071621, anaerobic): 128 µg/mL
MIC (Staphylococcus aureus; ATCC33591, Staphylococcus aureus ATCC 33591 (Table 15)): 4 µg/mL
MIC (Staphylococcus aureus; Staphylococcus aureus 829025): 8 µg/mL
MIC (Staphylococcus aureus; Staphylococcus aureus 894946): 8 µg/mL
MIC (Staphylococcus aureus; Staphylococcus aureus 920576): 8 µg/mL
MIC (Staphylococcus aureus; Staphylococcus aureus 920962): 8 µg/mL
MIC (Staphylococcus aureus; Staphylococcus aureus 927596): 8 µg/mL
MIC (Staphylococcus aureus; Staphylococcus aureus 952566 (Table 15)): > 16 µg/mL
MIC (Staphylococcus aureus; Staphylococcus aureus 952566 (Tables 14A/14B)): 8 µg/mL
MIC (Staphylococcus aureus; Staphylococcus aureus 953041 (Table 15)): 4 µg/mL
MIC (Staphylococcus aureus; Staphylococcus aureus 956270): 8 µg/mL
MIC (Staphylococcus aureus; Staphylococcus aureus 956362): 8 µg/mL
MIC (Staphylococcus aureus; Staphylococcus aureus 981550 (Table 15)): 16 µg/mL
MIC (Staphylococcus aureus; Staphylococcus aureus 981550 (Tables 14A/14B)): 8 µg/mL
MIC (Staphylococcus aureus; Staphylococcus aureus 994946): 2 µg/mL
MIC (Staphylococcus aureus; Staphylococcus aureus 1022425): 16 µg/mL
MIC (Staphylococcus aureus; Staphylococcus aureus 1045190): 8 µg/mL
MIC (Staphylococcus aureus; strain (MR) 829025, aerobic): 4 µg/mL
MIC (Staphylococcus aureus; strain (MR) 884649, aerobic): 8 µg/mL
MIC (Staphylococcus aureus; strain (MR) 903887, aerobic): 8 µg/mL
MIC (Staphylococcus aureus; strain (MR) 918019, aerobic): 4 µg/mL
MIC (Staphylococcus aureus; strain (MR) 920516, aerobic): 4 µg/mL
MIC (Staphylococcus aureus; strain (MR) 927596, aerobic): 8 µg/mL
MIC (Staphylococcus aureus; strain (MR) 956270, aerobic): 4 µg/mL
MIC (Staphylococcus aureus; strain (MR) 956362, aerobic): 8 µg/mL
MIC (Staphylococcus aureus; strain (MR) 967287, aerobic): 8 µg/mL
MIC (Staphylococcus aureus; strain (MR) 974980, aerobic): 8 µg/mL
MIC (Staphylococcus aureus; strain (MR) 979234, aerobic): 8 µg/mL
MIC (Staphylococcus aureus; strain (MR) 981550, aerobic): 4 µg/mL
MIC (Staphylococcus aureus; strain (MR) 1022425, aerobic): 8 µg/mL
MIC (Staphylococcus aureus; strain (MR) 1045190, aerobic): 4 µg/mL
MIC (Pseudomonas aeruginosa; Pseudomonas aeruginosa): 128 µg/mL
MIC (Pseudomonas aeruginosa; Pseudomonas aeruginosa 945748): 128 µg/mL
MIC (Pseudomonas aeruginosa; Pseudomonas aeruginosa, pH 5, Pseudomonas aeruginosa 27853, pH 5, read-out: MIC): 32000 µg/mL
MIC (Pseudomonas aeruginosa; Pseudomonas aeruginosa, pH 5, Pseudomonas aeruginosa 975744, pH 5, read-out: MIC): 32000 µg/mL
MIC (Pseudomonas aeruginosa; Pseudomonas aeruginosa, pH 8, Pseudomonas aeruginosa 27853, pH 8, read-out: MIC): 64000 µg/mL
MIC (Pseudomonas aeruginosa; Pseudomonas aeruginosa, strain 880238, aerobic, read-out: MIC): 8 µg/mL
MIC (Pseudomonas aeruginosa; Pseudomonas aeruginosa, strain 889058, aerobic, read-out: MIC): 64 µg/mL
MIC (Pseudomonas aeruginosa; Pseudomonas aeruginosa, strain 906939, aerobic, read-out: MIC): 64 µg/mL
MIC (Bifidobacterium animalis; Bifidobacterium animalis): 128 µg/mL
MIC vs clinical breakpoint (susceptibility) (Bifidobacterium animalis; Bifidobacterium animalis JLP-002, anaerobic (Table 17)): −
MIC (Bifidobacterium animalis; Bifidobacterium animalis TBC0002, anaerobic): 32 µg/mL
MIC (Bifidobacterium animalis; Bifidobacterium animalis, Bifidobacterium animalis TBC0002, anaerobic, read-out: MIC): 64 µg/mL
susceptibility (Bifidobacterium animalis; Bifidobacterium, anaerobic): no susceptibility
MIC (Bifidobacterium animalis; strain TBC0002, anaerobic): 128 µg/mL
MIC (Lactobacillus gasseri): > 128 µg/mL
MIC (Pediococcus pentosaceus): > 128 µg/mL
MIC (Bacteroides fragilis; ATCC25285, Bacteroides fragilis ATCC 25285, anaerobic, read-out: MIC): 64 µg/mL
MIC vs clinical breakpoint (susceptibility) (Bacteroides fragilis; Bacteroides fragilis 638R): −
MIC vs clinical breakpoint (susceptibility) (Bacteroides fragilis; Bacteroides fragilis ATCC 23745): −
MIC vs clinical breakpoint (susceptibility) (Bacteroides fragilis; Bacteroides fragilis ATCC 25285): −
MIC vs clinical breakpoint (susceptibility) (Bacteroides fragilis; Bacteroides fragilis CLA267): −
MIC vs clinical breakpoint (susceptibility) (Bacteroides fragilis; Bacteroides fragilis O16M): −
MIC (Bacteroides fragilis; Bacteroides fragilis, ATCC23745, Bacteroides fragilis ATCC 23745, anaerobic): > 128 µg/mL
MIC (Bacteroides fragilis; Bacteroides fragilis, ATCC23745, strain ATCC 23745, anaerobic): > 128 µg/mL
MIC (Bacteroides fragilis; Bacteroides fragilis, ATCC25285, Bacteroides fragilis ATCC 25285, anaerobic): > 128 µg/mL
MIC (Bacteroides fragilis; Bacteroides fragilis, ATCC25285, strain ATCC 25285, anaerobic): > 128 µg/mL
MIC (Bacteroides fragilis; Bacteroides fragilis, Bacteroides fragilis 016M, anaerobic): > 128 µg/mL
MIC (Bacteroides fragilis; Bacteroides fragilis, Bacteroides fragilis 638R, anaerobic): > 128 µg/mL
MIC (Bacteroides fragilis; Bacteroides fragilis, Bacteroides fragilis CLA 267, anaerobic): > 128 µg/mL
MIC (Bacteroides fragilis; Bacteroides fragilis, strain 638R, anaerobic): > 128 µg/mL
MIC (Bacteroides fragilis; Bacteroides fragilis, strain CLA267, anaerobic): > 128 µg/mL
MIC (Bacteroides fragilis; Bacteroides fragilis, strain O16M (016M), anaerobic): > 128 µg/mL
MIC (Bacteroides fragilis; strain ATCC 25285, anaerobic): 128 µg/mL
MIC (Bacteroides fragilis; strain CLA267, anaerobic): 128 µg/mL
MIC (Enterococcus faecalis; Enterococcus faecalis): > 128 µg/mL
MIC (Enterococcus faecalis; Enterococcus faecalis 108, pH 5, read-out: MIC): 8000 µg/mL
MIC (Enterococcus faecalis; Enterococcus faecalis 1086432, pH 7, read-out: MIC): 64000 µg/mL
MIC (Enterococcus faecalis; Enterococcus faecalis, ATCC51559): > 128 µg/mL
MIC vs clinical breakpoint (susceptibility) (Clostridioides difficile; Clostridioides difficile 2-0247-4): +
MIC vs clinical breakpoint (susceptibility) (Clostridioides difficile; Clostridioides difficile 3/8): +
MIC vs clinical breakpoint (susceptibility) (Clostridioides difficile; Clostridioides difficile 10-3620-5): +
MIC (Clostridioides difficile; Clostridioides difficile, Clostridioides difficile 3/8, anaerobic, read-out: MIC): 32 µg/mL
MIC (Clostridioides difficile; Clostridioides difficile, Clostridioides difficile 10-3620-5, anaerobic): 16 µg/mL
MIC (Clostridioides difficile; Clostridioides difficile, strain 2-0247-4, anaerobic, read-out: MIC): 16 µg/mL
MIC (Clostridioides difficile; Clostridioides difficile, strain 10-3620-5, anaerobic, read-out: MIC): 8 µg/mL
MIC (Clostridioides difficile; strain 2-0247-4, anaerobic): 32 µg/mL
MIC (Clostridioides difficile; strain 10-3620-5, anaerobic): 16 µg/mL
MIC [1]: > 128 µg/mL
MIC (Bacteroides ovatus; Bacteroides ovatus ATCC 8483, anaerobic): >128 µg/mL
MIC vs clinical breakpoint (susceptibility) (Bacteroides ovatus; Bacteroides ovatus ATCC 8483, anaerobic (Table 17)): −
MIC (Bacteroides ovatus; Bacteroides ovatus, ATCC8483): > 128 µg/mL
MIC (Klebsiella pneumoniae; Klebsiella pneumoniae 870964): 64 µg/mL
MIC (Klebsiella pneumoniae; Klebsiella pneumoniae 875638): 64 µg/mL
MIC (Klebsiella pneumoniae; pH 5, Klebsiella pneumoniae 848788, pH 5): 64000 µg/mL
MIC (Klebsiella pneumoniae; strain 848788, aerobic): 32 µg/mL
MIC (Klebsiella pneumoniae; strain 857147, aerobic): 32 µg/mL
MIC (Klebsiella pneumoniae; strain 868968, aerobic): 8 µg/mL
MIC (Klebsiella pneumoniae; strain 869028, aerobic): 8 µg/mL
MIC (Klebsiella pneumoniae; strain 870964, aerobic): 8 µg/mL
MIC (Klebsiella pneumoniae; strain 875638, aerobic): 16 µg/mL
MIC (Klebsiella pneumoniae; strain 892483, aerobic): 4 µg/mL
MIC (Klebsiella pneumoniae; strain 926439, aerobic): 4 µg/mL
MIC (Klebsiella pneumoniae; strain 926456, aerobic): 64 µg/mL
MIC (Klebsiella pneumoniae; strain 939665, aerobic): 64 µg/mL
MIC (Klebsiella pneumoniae; strain 957464, aerobic): 16 µg/mL
MIC (Klebsiella pneumoniae; strain 957467, aerobic): 16 µg/mL
MIC (Klebsiella pneumoniae; strain 984643, aerobic): 16 µg/mL
MIC (Klebsiella pneumoniae; strain 993434, aerobic): 16 µg/mL
MIC (Klebsiella pneumoniae; strain 995460, aerobic): 16 µg/mL
MIC (Klebsiella pneumoniae; strain 1040205, aerobic): 16 µg/mL
